Test results from US9446047B2, “Substituted 2,3-dihydro-1H-inden-1-one retinoic acid-related orphan nuclear receptor antagonists for treating multiple sclerosis” (Arrien Pharmaceuticals LLC, priority 2013, dated 2016).
Like-named read-outs stand apart in the source and are kept apart here.

Columns and labels:
RORγ-LBD (RORγt) = molecular target: T1, RORγ-LBD (RORγt) (Homo sapiens, UniProt P51449); assay: TR-FRET RORγt Binding Assay; details: 6-His(GST)RORγ-LBD, SRC1_2 peptide, read-out: RORγt Binding
T1 construct: the 6-His-(GST) RORγ-LBD was used which expressed and purified from baculovirus infected Sf-21 insect cells; made in house; host or cells: baculovirus-infected Sf-21 insect cells
T1 sequence (P51449 269-508 limits assumed): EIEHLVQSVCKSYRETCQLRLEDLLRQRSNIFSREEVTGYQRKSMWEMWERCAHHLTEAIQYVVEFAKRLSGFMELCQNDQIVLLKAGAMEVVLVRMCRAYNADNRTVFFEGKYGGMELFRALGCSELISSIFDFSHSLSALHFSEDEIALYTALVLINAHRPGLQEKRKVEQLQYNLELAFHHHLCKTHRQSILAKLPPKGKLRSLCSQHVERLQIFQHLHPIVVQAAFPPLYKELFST
Method: TR-FRET RORγt Binding Assay: RORγ-LBD contains a 6-His and GST tag peptide from SRC1-2 an aminoterminal biotinyl-[…] was employed and the 6-His-(GST) RORγ-LBD was used which expressed and purified from baculovirus infected Sf-21 insect cells from Invitrogen and purified using glutathione sepharose. […] The peptide binding due to dose-curves of compounds was added the 0.1% DMSO. Fluorescence at wavelength 340 nm was read in each well of […] using an Envision fluorescence reader in Time Resolved mode after overnight incubation at 4° C.

RORγt = molecular target: T2, RORγt (Homo sapiens, UniProt P51449); assay: RORγt-activated IL-17A Prom/LUCPorter HEK 293 cells luciferase reporter assay; type: cell-based; details: IL-17A Prom/LUCPorter HEK 293 cells transfected with RORγt, 16 h; read-out: RORγt Cell Specific
T2 construct: host or cells: IL-17A Prom/LUCPorter HEK 293 cell line (IMGENEX, IML-301)
T2 sequence (P51449 1-497 isoform P51449-2): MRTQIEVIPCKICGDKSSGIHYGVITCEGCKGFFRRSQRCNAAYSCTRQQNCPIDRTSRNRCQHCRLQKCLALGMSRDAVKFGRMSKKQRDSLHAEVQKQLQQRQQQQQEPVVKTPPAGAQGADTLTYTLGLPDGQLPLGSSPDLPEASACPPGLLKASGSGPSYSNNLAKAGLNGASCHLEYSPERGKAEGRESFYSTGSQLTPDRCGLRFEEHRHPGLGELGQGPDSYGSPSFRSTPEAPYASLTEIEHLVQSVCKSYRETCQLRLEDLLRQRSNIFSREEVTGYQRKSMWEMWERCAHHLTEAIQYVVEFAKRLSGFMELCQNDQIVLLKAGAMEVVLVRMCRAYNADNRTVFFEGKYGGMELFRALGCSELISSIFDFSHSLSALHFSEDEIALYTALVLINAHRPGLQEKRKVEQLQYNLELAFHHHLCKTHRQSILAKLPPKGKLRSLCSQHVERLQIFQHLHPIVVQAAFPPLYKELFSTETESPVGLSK
Method: Antagonistic (or inverse agonistic) effects of the test compounds on the RORγt-activated IL-17A Prom/LUCPorter™ HEK 293 cells were analyzed and IC50 of each compound was evaluated. […] Luciferase activity was analyzed using the luciferase reporter assay reagent (IMGENEX, LS100). The data were analyzed using Excel and Prism software. Percent activity was defined as 100×(1−(Well−Control A)/(Control B−Control A)), where Control A was the wells containing cells transfected with RORγt and Control B was the wells containing non-transfected cells. Both Controls A and B were treated with vehicle alone.

[1] = system: IL-17 release from CD4+ T cells; assay: Cytokine IL-17 estimation by HTRF, IL-17 release from CD4+ T cells; type: cell-based; details: Homo sapiens, read-out: IL-17 Inhibition
Text: The assay was designed to assess the potency of test compounds on IL-17 cytokine release from CD4+ T cells. In order to aid in the identification of potent inhibitors, the IC50's determined for the test compounds IL-17 release from CD4+ T cells through the generation of 10 point Dose Response Curves (DRC). Assay methods used to quantify IL-17 secretion is HTRF (Homogenous Time Resolved Fluorescence). IL-17 secreted is detected by anti-IL-17 MAb labeled with XL665, the second MAb labeled with Cryptate, which binds to specific epitopes of human IL-17. Upon close proximity of both acceptor and donor energy transfer (FRET) occurs. This technique has been further enhanced by using long-lived labels combined with the detection on a time-resolved fluorescence basis, allowing […] of prompt fluorescence interferences.
The assay was performed according to manufacturer's instruction. All the reagents were reconstituted according to instructions provided. The reagents were dispensed into a half area 96-well plate in the following order: […] or sample, IL-17 MAbXL665 and 5 μL IL-17 Cryptate. For the negative control, the standard or sample is replaced by […]. The plate is covered with a plate sealer and incubated at rt for 2 h. Following incubation, the plate sealer is removed and the plate is read using HTRF protocol on Envision Microplate reader. All of the data analysis was carried out using Microsoft Excel (2010) and IC50 was determined using GraphPad Prism 4 software. % Inhibition of the test compounds were determined utilizing the following formula: % Inhibition=100−(100*(Average Test Compound Counts−Average Negative Control Counts)/(Average Positive Control Counts−Average Negative Control Counts)).
We have established robust in vitro cell-based HTRF assay for the activation and stimulation of CD4+ T lymphocytes to T helper 17 (Th17) cell differentiation and IL-17 production.

[2] = IL-17 release from CD4+ T cells, HTRF

SMILES | IC50 (RORγ-LBD (RORγt)) | IC50 (RORγt) | IC50 [1, 2] | IC50 [1]
COc1cc2c(cc1N1CCOCC1)CC(Cc1cc(Cl)cc(C(F)(F)F)c1)C2=O (stereo not drawn) [compound 50, 2-(3-chloro-5-(trifluoromethyl)benzyl)-6-methoxy-5-morpholino-2,3-dihydro-1H-inden-1-one] | < 500 nM | > 1000 nM | > 1000 nM | –
COc1cc2c(cc1N1CCOCC1)CC(Cc1cc(Cl)ccc1C(F)(F)F)C2=O (stereo not drawn) [compound 53, 2-(5-chloro-2-(trifluoromethyl)benzyl)-6-methoxy-5-morpholino-2,3-dihydro-1H-inden-1-one] | > 1000 nM | > 1000 nM | > 1000 nM | –
COc1cc2c(cc1N1CCOCC1)CC(Cc1ccc(Cl)cc1C(F)(F)F)C2=O (stereo not drawn) [compound 56, 2-(4-chloro-2-(trifluoromethyl)benzyl)-6-methoxy-5-morpholino-2,3-dihydro-1H-inden-1-one] | > 1000 nM | > 1000 nM | > 1000 nM | –
COc1cc2c(cc1N1CCOCC1)CC(Cc1cc(C(F)(F)F)cnc1Cl)C2=O (stereo not drawn) [compound 62, 2-((2-chloro-5-(trifluoromethyl)pyridin-3-yl)methyl)-6-methoxy-5-morpholino-2,3-dihydro-1H-inden-1-one] | > 1000 nM | > 1000 nM | – | < 500 nM
COc1cc2c(cc1N1CCOCC1)CC(Cc1cc(C(F)(F)F)ccc1NC(=O)C(C)(C)C)C2=O (stereo not drawn) [compound 65, N-(2-((6-methoxy-5-morpholino-1-oxo-2,3-dihydro-1H-inden-2-yl)methyl)-4-(trifluoromethyl)phenyl)pivalamide] | > 10000 nM | > 1000 nM | > 1000 nM | –
COc1cc2c(cc1N1CCOCC1)CC(Cc1ccc(C(F)(F)F)nc1)C2=O (stereo not drawn) [compound 71, 6-methoxy-5-morpholino-2-((6-(trifluoromethyl)pyridin-3-yl)methyl)-2,3-dihydro-1H-inden-1-one] | > 10000 nM | > 10000 nM | > 1000 nM | –
COc1cc2c(cc1N1CCOCC1)CC(Cc1ccc(SC(F)(F)F)cc1)C2=O (stereo not drawn) [compound 74, 6-methoxy-5-morpholino-2-(4-((trifluoromethyl)thio)benzyl)-2,3-dihydro-1H-inden-1-one] | > 10000 nM | > 10000 nM | > 1000 nM | –
COc1cc2c(cc1N1CCOCC1)CC(Cc1cc(C(F)(F)F)ccc1F)C2=O (stereo not drawn) [compound 77, 2-(2-fluoro-5-(trifluoromethyl)benzyl)-6-methoxy-5-morpholino-2,3-dihydro-1H-inden-1-one] | > 1000 nM | > 1000 nM | > 1000 nM | –
COc1cc2c(cc1N1CCOCC1)CC(Cc1ccc(C(F)(F)F)cc1)C2=O (stereo not drawn) [compound 86] | > 1000 nM | > 1000 nM | > 1000 nM | –
COc1cc2c(cc1N1CCOCC1)CC(Cc1ccc(C(F)(F)F)c(Cl)c1)C2=O (stereo not drawn) [compound 92] | > 1000 nM | > 1000 nM | > 1000 nM | –
COc1cc2c(cc1N1CCOCC1)CC(Cc1cc(C)n[nH]1)C2=O (stereo not drawn) [compound 95] | > 1000 nM | > 1000 nM | > 1000 nM | –
COc1cc2c(cc1N1CCNCC1)CC(Cc1ccc(SC(F)(F)F)cc1)C2=O (stereo not drawn) [compound 117] | < 500 nM | > 1000 nM | > 1000 nM | –
COc1cc2c(c(N3CCOCC3)c1OC)CC(Cc1ncccc1C(F)(F)F)C2=O (stereo not drawn) [compound 123, 5,6-dimethoxy-4-morpholino-2-((3-(trifluoromethyl)pyridin-2-yl)methyl)-2,3-dihydro-1H-inden-1-one] | > 1000 nM | > 1000 nM | > 1000 nM | –
COc1cc2c(c(N3CCN(C)CC3)c1OC)CC(Cc1ccc(SC(F)(F)F)cc1)C2=O (stereo not drawn) [compound 125, 5,6-dimethoxy-4-(4-methylpiperazin-1-yl)-2-(4-((trifluoromethyl)thio)benzyl)-2,3-dihydro-1H-inden-1-one] | > 1000 nM | > 1000 nM | > 1000 nM | –
COc1cc2c(c(N3CCC(C)CC3)c1OC)CC(Cc1ccc(SC(F)(F)F)cc1)C2=O (stereo not drawn) [compound 131, 5,6-dimethoxy-4-(4-methylpiperidin-1-yl)-2-(4-((trifluoromethyl)thio)benzyl)-2,3-dihydro-1H-inden-1-one] | > 1000 nM | > 1000 nM | > 1000 nM | –

Continued, in another order:

IC50 (RORγ-LBD (RORγt)) | IC50 (RORγt) | IC50 [1, 2] | SMILES | IC50 [1]
> 1000 nM | > 10000 nM | > 1000 nM | COc1cc2c(cc1N1CCOCC1)CC(Cc1c(Cl)cccc1C(F)(F)F)C2=O (stereo not drawn) [compound 59, 2-(2-chloro-6-(trifluoromethyl)benzyl)-6-methoxy-5-morpholino-2,3-dihydro-1H-inden-1-one] | –
< 500 nM | < 500 nM | < 500 nM | COc1cc2c(cc1N1CCOCC1)CC(Cc1ncccc1C(F)(F)F)C2=O (stereo not drawn) [compound 68, 6-methoxy-5-morpholino-2-((3-(trifluoromethyl)pyridin-2-yl)methyl)-2,3-dihydro-1H-inden-1-one] | –
> 1000 nM | > 1000 nM | > 1000 nM | COc1cc2c(cc1N1CCOCC1)CC(Cc1cccc(C(F)(F)F)c1F)C2=O (stereo not drawn) [compound 80] | –
> 1000 nM | > 1000 nM | < 500 nM | COc1cc2c(cc1N1CCOCC1)CC(Cc1ccc(Cl)c(C(F)(F)F)c1)C2=O (stereo not drawn) [compound 89] | –
< 500 nM | > 1000 nM | > 1000 nM | COc1cc2c(cc1N1CCN(C)CC1)CC(Cc1cccc(C(F)(F)F)c1)C2=O (stereo not drawn) [compound 103, 6-methoxy-5-(4-methylpiperazin-1-yl)-2-(3-(trifluoromethyl)benzyl)-2,3-dihydro-1H-inden-1-one] | –
< 500 nM | > 1000 nM | > 1000 nM | COc1cc2c(cc1N1CCN(C)CC1)CC(Cc1ccc(SC(F)(F)F)cc1)C2=O (stereo not drawn) [compound 106] | –
< 500 nM | < 500 nM | > 1000 nM | COc1cc2c(cc1N1CCN(C)CC1)CC(Cc1cccc(C(F)(F)F)c1Cl)C2=O (stereo not drawn) [compound 110, 2-(2-chloro-3-(trifluoromethyl)benzyl)-6-methoxy-5-(4-methylpiperazin-1-yl)-2,3-dihydro-1H-inden-1-one] | –
< 500 nM | < 500 nM | > 1000 nM | COc1cc2c(cc1N1CCN(C)CC1)CC(Cc1ncccc1C(F)(F)F)C2=O (stereo not drawn) [compound 113] | –
> 1000 nM | > 1000 nM | > 1000 nM | COc1cc2c(c(N3CCN(C)CC3)c1OC)CC(Cc1ncccc1C(F)(F)F)C2=O (stereo not drawn) [compound 128, 5,6-dimethoxy-4-(4-methylpiperazin-1-yl)-2-((3-(trifluoromethyl)pyridin-2-yl)methyl)-2,3-dihydro-1H-inden-1-one] | –
